Assay results reported in patent publication US8685655B2, “Dissociation method and dissociation agent for avidin and biotin derivatives” (JSR Corporation, priority 2009, dated 2014).

Key:
[1] = biological target: T1, streptavidin magnetic particles-desthiobiotin-bound probe molecules-target substance complex (Streptomyces avidinii, UniProt P22629); assay: Dissociation efficiency: target cells released from the capturing carrier by the dissociation agent (quantitative PCR cell count); conditions: 250 μL dissociation agent liquid in PBS, room temperature, 20 minutes; HT-29 cells isolated / cells bound x 100
T1 construct: purchased Invitrogen Dynabeads M-280 Streptavidin
Description: The number of cells was determined by measuring the quantity of genome DNA according to the quantitative PCR method.
(1) Measurement of the Number of Cells Bound to the Capturing Carrier:
50 μL of 0.8 mg/mL solution of proteinase K (protease, manufactured by Qiagen N.V.) dissolved in 10-mM Tris-HCl buffer solution (pH: 8.3) was added to the total amount of the combination of the capturing carrier and the target cells yielded in the below Examples and Comparative Example, and the resultant was reacted by heating at 55° C. for 15 minutes to elute DNA. Subsequently, this solution was heated at 95° C. for 20 minutes to inactivate proteinase K. 20 μL of the resultant DNA solution was added to 30 μL of a quantitative PCR cocktail (Fast Start Taq, manufactured by Roche (Co.)) to carry out quantitative PCR. Other DNA solutions prepared by the same method using predetermined number of cells were used to prepare a calibration curve. A 7500 Real-Time PCR System, manufactured by Applied Biosystems (Co.), was used for the quantitative PCR.
(2) Measurement of the Number of Cells Isolated from the Capturing Carrier: […]
The efficiency of dissociation of (strept) avidin from the biotin derivative was determined according to the following equation: Efficiency of Dissociation (%)=“the number of the cells isolated from the capturing carrier”/“the number of the cells bound to the capturing carrier”×100
1 mg aliquots of the capturing carrier yielded in Preparation Example 2 were added into test tubes. […] The number of the cells bound to the isolated capturing carrier was measured, and the number was 8,500, which was 85% of the number of the cells used for the Example. […]

avidin = avidin (Gallus gallus, UniProt P02701); conditions: cited from earlier work
Sequence of avidin (P02701 25-152, species assumed): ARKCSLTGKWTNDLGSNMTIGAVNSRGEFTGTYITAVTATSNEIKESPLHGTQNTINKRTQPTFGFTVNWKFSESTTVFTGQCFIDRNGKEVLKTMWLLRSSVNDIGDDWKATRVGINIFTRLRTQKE

T1 sequence (P22629 25-183, one chain of several): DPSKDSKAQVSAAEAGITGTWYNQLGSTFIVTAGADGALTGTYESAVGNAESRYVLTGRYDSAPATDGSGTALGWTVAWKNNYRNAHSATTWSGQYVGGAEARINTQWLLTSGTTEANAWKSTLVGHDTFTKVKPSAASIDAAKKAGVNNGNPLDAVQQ

| Compound | Dissociation efficiency (%) [1] | binding constant with avidin (avidin) |
| --- | --- | --- |
| O=C(O)CCCC[C@@H]1SC[C@@H]2NC(=O)N[C@@H]21 [Biotin, biotin] | 3% | 10^15 M |
| BSA-Biotin6: dissociation agent in which six (6) in average of biotin were bound to one molecule of BSA | 70% | – |
| BSA-Biotin10: dissociation agent in which ten (10) in average of biotin were bound to one molecule of BSA | 96% | – |
